# Source: patent US6548495B2, “Dihydro-benzo [B] [1,4] diazepin-2-one derivatives” (Hoffmann-La Roche Inc., priority 2002, dated 2003)
# Tests used:
# [1] = biological target: T1, recombinant rat mGluR2 expressed in CHO cells (Rattus norvegicus, UniProt P31421); experiment: [3H]-LY354740 binding on mGlu2 transfected CHO cell membranes (displacement binding assay); settings: displacement of 10 nM [3H]-LY354740, membranes of CHO cells expressing rat mGlu2, room temperature, 1 hour; Ki calculated from IC50 with the Cheng and Prusoff equation
# T1 construct: expressed in transfected cells; host or cells: CHO cells, stably transfected with pcD1mGR2 (pcDNA I-amp), G-418 selected; membranes used
# From the text: In Table I below some specific Ki values of preferred compounds of the invention are presented. These values were obtained by indirect measurement of the affinity of the compounds for the recombinant rat mGluR2 expressed in CHO cells using a displacement binding assay with 3H-LY354740.
# [^3H]-LY354740 Binding on mGlu2 Transfected CHO Cell Membranes
# Transfection and Cell Culture
# cDNA encoding the rat mGlu2 receptor protein in pBluescript II was obtained from Prof. S. Nakanishi (Kyoto, Japan), and subcloned into the eukaryotic expression vector pcDNA I-amp from Invitrogen (NV Leek, The Netherlands). This vector construct (pcD1mGR2) was co-transfected with a psvNeo plasmid encoding the gene for neomycin resistance, into CHO cells by a modified calcium phosphate method described by Chen & Okayama (1988). The cells were maintained in Dulbecco's Modified Eagle medium with reduced L-glutamine (2 mM final concentration) and 10% dialysed foetal calf serum from Gibco BRL (Basel, Switzerland). Selection was made in the presence of G-418 (1000 ug/mL final). Clones were identified by reverse transcription of 5 μg total RNA, followed by PCR using mGlu2 receptor specific primers 5′-[…]-3′ and 5′-[…]-3′ in 60 mM Tris HCl (pH 10), 15 mM (NH4)2SO4, 2 mM MgCl2, 25 units/mL Taq Polymerase with 30 cycles annealing at 60° C. for 1 min., extention at 72° C. for 30 s, and 1 min. 95° C. denaturation.
# Cells, cultured as above, were harvested and washed three times with cold PBS and frozen at −80° C. The pellet was resuspended in cold 20 mM HEPES-NaOH buffer containing 10 mM EDTA (pH 7.4), and homogenised with a polytron (Kinematica, AG, Littau, Switzerland) for 10 s at 10000 rpm. After centrifugation for 30 min. at 4° C., the pellet was washed once with the same buffer, and once with cold 20 mM HEPES-NaOH buffer containing 0.1 mM EDTA, (pH 7.4). Protein content was measured using the Pierce method (Socochim, Lausanne, Switzerland) using bovine serum albumin as standard.
# After thawing, the membranes were resuspended in cold 50 mM Tris-HCl buffer containing 2 mM MgCl2 and 2 mM CaCl2, (pH 7) (binding buffer). The final concentration of the membranes in the assays was 25 μg protein/mL. Inhibition experiments were performed with membranes incubated with 10 nM [^3H]-LY354740 at room temperature, for 1 hour, in presence of various concentrations of the compound to be tested. Following the incubations, membranes were filtered onto Whatmann GF/C glass fiber filters and washed 5 times with cold binding buffer. Non specific binding was measured in the presence of 10 μM DCG IV. After transfer of the filters into plastic vials containing 10 mL of Ultima-gold scintillation fluid (Packard, Züirich, Switzerland), the radioactivity was measured by liquid scintillation in a Tri-Carb 2500 TR counter (Packard, Züirich, Switzerland).
# The inhibition curves were fitted with a four parameter logistic equation giving IC50 values, and Hill coefficients and the Ki values were calculated using the Cheng and Prusoff equation (Cheng, Y. and Prusoff, W. H., Biochem. Pharmacol. 1973, 22, 3099-3108). A small Ki value expresses high affinity of the compound towards the receptor.
# T1 sequence (P31421 19-872): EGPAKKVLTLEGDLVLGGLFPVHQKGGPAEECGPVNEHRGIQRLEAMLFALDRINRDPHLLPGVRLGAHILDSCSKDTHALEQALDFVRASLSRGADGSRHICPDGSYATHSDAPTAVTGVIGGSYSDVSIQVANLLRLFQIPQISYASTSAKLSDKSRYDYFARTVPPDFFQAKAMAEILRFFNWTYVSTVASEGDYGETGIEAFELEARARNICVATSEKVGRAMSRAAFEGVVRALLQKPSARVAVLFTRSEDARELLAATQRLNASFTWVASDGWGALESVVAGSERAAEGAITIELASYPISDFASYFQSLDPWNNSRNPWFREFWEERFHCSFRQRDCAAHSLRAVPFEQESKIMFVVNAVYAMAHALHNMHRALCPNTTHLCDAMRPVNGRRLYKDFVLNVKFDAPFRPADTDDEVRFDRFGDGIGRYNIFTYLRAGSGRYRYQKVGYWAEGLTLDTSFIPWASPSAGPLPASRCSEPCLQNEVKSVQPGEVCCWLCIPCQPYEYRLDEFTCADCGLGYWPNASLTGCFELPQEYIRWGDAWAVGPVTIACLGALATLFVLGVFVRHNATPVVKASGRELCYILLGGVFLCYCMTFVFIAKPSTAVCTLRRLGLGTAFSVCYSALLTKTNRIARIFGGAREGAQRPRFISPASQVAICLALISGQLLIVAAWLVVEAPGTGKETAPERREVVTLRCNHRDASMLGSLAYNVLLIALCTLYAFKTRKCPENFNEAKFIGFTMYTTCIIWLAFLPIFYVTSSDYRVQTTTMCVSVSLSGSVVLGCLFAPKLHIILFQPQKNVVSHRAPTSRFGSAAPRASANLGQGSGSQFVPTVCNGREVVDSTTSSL
Structure (SMILES),Ki [1] [nM],melting point [°C]
"O=C1CC(c2cccc(-n3nncc3CO)c2)=Nc2cc(N3CCOCC3)c(C(F)(F)F)cc2N1 [Example 1, 4-[3-(5-Hydroxymethyl-[1,2,3]triazol-1-yl)-phenyl]-7-morpholin-4-yl-8-trifluoromethyl-1,3-dihydro-benzo[b][1,4]diazepin-2-one]",74,200
"N#Cc1cc(C2=Nc3cc(N4CCOCC4)c(C(F)(F)F)cc3NC(=O)C2)ccn1 [Example 2, 4-(8-Morpholin-4-yl-4-oxo-7-trifluoromethyl-4,5-dihydro-3H-benzo[b][1,4]diazepin-2-yl)-pyridine-2-carbonitrile]",20,220
"N#Cc1cccc(C2=Nc3ccc(-n4cccc4)cc3NC(=O)C2)c1 [Example 4, 3-(4-oxo-7-Pyrrol-1-yl-4,5-dihydro-3H-benzo[b][1,4]diazepin-2-yl)-benzonitrile]",35,219
"N#Cc1cccc(C2=Nc3cc(I)c(-n4cccc4)cc3NC(=O)C2)c1 [Example 9, 3-(8-Iodo-4-oxo-7-pyrrol-1-yl-4,5-dihydro-3H-benzo[b][1,4]diazepin-2-yl)-benzonitrile]",75,215
"N#Cc1cccc(C2=Nc3ccc(-n4ccc(-c5ccccc5)c4)cc3NC(=O)C2)c1 [Example 12, 3-[4-oxo-7-(3-Phenyl-pyrrol-1-yl)-4,5-dihydro-3H-benzo[b][1,4]diazepin-2-yl]-benzonitrile]",75,–
"O=C1CC(c2cccc(-n3ccnc3)c2)=Nc2ccc(-n3cccc3)cc2N1 [Example 16, 4-(3-Imidazol-1-yl-phenyl)-8-pyrrol-1-yl-1,3-dihydro-benzo[b][1,4]diazepin-2-one]",25,220
"COc1cc2c(cc1-n1cccc1)NC(=O)CC(c1cccc(C#N)c1)=N2 [Example 17, 3-(8-Methoxy-4-oxo-7-pyrrol-1-yl-4,5-dihydro-3H-benzo[b][1,4]diazepin-2-yl)-benzonitrile]",44,–
"COc1cc2c(cc1-n1cccc1C(C)(C)C)NC(=O)CC(c1cccc(C#N)c1)=N2 [Example 18, 3-[7-(2-tert.-Butyl-pyrrol-1-yl)-8-methoxy-4-oxo-4,5-dihydro-3H-benzo[b][1,4]diazepin-2-yl]-benzonitrile]",80,> 250
"O=C1CC(c2cccc(-c3nc(CO)cs3)c2)=Nc2ccc(-n3cccc3)cc2N1 [Example 20, 4-[3-(4-Hydroxymethyl-thiazol-2-yl)-phenyl]-8-pyrrol-1-yl-1,3-dihydro-benzo[b][1,4]diazepin-2-one]",28,238 to 240
"O=C1CC(c2cccc(-n3ccnn3)c2)=Nc2ccc(-n3cccc3)cc2N1 [Example 21, 8-Pyrrol-1-yl-4-(3-[1,2,3]triazol-1-yl-phenyl)-1,3-dihydro-benzo[b][1,4]diazepin-2-one]",7.5,206 to 209
"O=C1CC(c2cccc(-c3ncco3)c2)=Nc2ccc(-n3cccc3)cc2N1 [Example 22, 4-(3-Oxazol-2-yl-phenyl)-8-pyrrol-1-yl-1,3-dihydro-benzo[b][1,4]diazepin-2-one]",23,251 to 253
"CCOC(=O)c1ncoc1-c1cccc(C2=Nc3ccc(-n4cccc4)cc3NC(=O)C2)c1 [Example 23, 5-[3-(4-oxo-7-Pyrrol-1-yl-4,5-dihydro-3H-benzo[b][1,4]diazepin-2-yl)-phenyl]-oxazole-4-carboxylic Acid Ethyl Ester]",29,222 to 224
"NC(=O)c1coc(-c2cccc(C3=Nc4ccc(-n5cccc5)cc4NC(=O)C3)c2)n1 [Example 27, 2-[3-(4-oxo-7-Pyrrol-1-yl-4,5-dihydro-3H-benzo[b][1,4]diazepin-2-yl)-phenyl]-oxazole-4-carboxylic Acid Amide]",62,232 to 234
"Cc1cc2c(cc1C(F)(F)F)NC(=O)CC(c1cccc(-n3nncc3CO)c1)=N2 [Example 68, 4-[3-(5-Hydroxymethyl-[1,2,3]triazol-1-yl)-phenyl]-7-methyl-8-trifluoromethyl-1,3-dihydro-benzo[b][1,4]diazepin-2-one]",–,215
"Cc1cc(-c2cccc(C3=Nc4cc(C)c(C(F)(F)F)cc4NC(=O)C3)c2)on1 [Example 70, 7-Methyl-4-[3-(3-methyl-isoxazol-5-yl)-phenyl]-8-trifluoromethyl-1,3-dihydro-benzo[b][1,4]diazepin-2-one]",–,240
"O=C1CC(c2cccc(-n3cncn3)c2)=Nc2cc(Cl)c(C(F)(F)F)cc2N1 [Example 71, 7-Chloro-4-(3-[1,2,4]triazol-1-yl-phenyl)-8-trifluoromethyl-1,3-dihydro-benzo[b][1,4]diazepin-2-one]",–,258
"O=C1CC(c2cccc(-n3ccnc3)c2)=Nc2cc(Cl)c(C(F)(F)F)cc2N1 [Example 72, 7-Chloro-4-(3-imidazol-1-yl-phenyl)-8-trifluoromethyl-1,3-dihydro-benzo[b][1,4]diazepin-2-one]",–,225
"O=C1CC(c2cccc(-n3ccnn3)c2)=Nc2cc(Cl)c(C(F)(F)F)cc2N1 [Example 73, 7-Chloro-4-(3-[1,2,3]triazol-1-yl-phenyl)-8-trifluoromethyl-1,3-dihydro-benzo[b][1,4]diazepin-2-one]",–,219
"Cc1cc2c(cc1C(F)(F)F)NC(=O)CC(c1cccc(-n3cncn3)c1)=N2 [Example 74, 7-Methyl-4-(3-[1,2,4]triazol-1-yl-phenyl)-8-trifluoromethyl-1,3-dihydro-benzo[b][1,4]diazepin-2-one]",–,241
"Cc1cc2c(cc1C(F)(F)F)NC(=O)CC(c1cccc(-n3ccnn3)c1)=N2 [Example 76, 7-Methyl-4-(3-[1,2,3]triazol-1-yl-phenyl)-8-trifluoromethyl-1,3-dihydro-benzo[b][1,4]diazepin-2-one]",–,237
"CC(=O)OCc1coc(-c2cccc(C3=Nc4ccc(-n5cccc5)cc4NC(=O)C3)c2)n1 [Example 78, Acetic Acid 2-[3-(4-oxo-7-Pyrrol-1-yl-4,5-dihydro-3H-benzo[b][1,4]diazepin-2-yl)-phenyl]-oxazol-4-ylmethyl Ester]",–,206 to 207
"CNCc1coc(-c2cccc(C3=Nc4ccc(-n5cccc5)cc4NC(=O)C3)c2)n1 [Example 79, 4-[3-(4-Methylaminomethyl-oxazol-2-yl)-phenyl]-8-pyrrol-1-yl-1,3-dihydro-benzo[b][1,4]diazepin-2-one]",–,182 to 183
"CN(C)Cc1coc(-c2cccc(C3=Nc4ccc(-n5cccc5)cc4NC(=O)C3)c2)n1 [Example 80, 4-[3-(4-Dimethylaminomethyl-oxazol-2-yl)-phenyl]-8-pyrrol-1-yl-1,3-dihydro-benzo[b][1,4]diazepin-2-one]",–,172 to 175
"O=C1CC(c2cccc(-c3nc(CN4CCOCC4)co3)c2)=Nc2ccc(-n3cccc3)cc2N1 [Example 81, 4-[3-(4-Morpholin-4-ylmethyl-oxazol-2-yl)-phenyl]-8-pyrrol-1-yl-1,3-dihydro-benzo[b][1,4]diazepin-2-one]",–,166 to 167
"N#Cc1cc(C2=Nc3ccc(-n4cccc4)cc3NC(=O)C2)ccn1 [Example 82, 4-(4-oxo-7-Pyrrol-1-yl-4,5-dihydro-3H-benzo[b][1,4]diazepin-2-yl)-pyridine-2-carbonitrile]",–,243 to 244
"Cc1cc2c(cc1C(F)(F)F)NC(=O)CC(c1cccc(-c3ncoc3C)c1)=N2 [Example 83, 7-Methyl-4-[3-(5-methyl-oxazol-4-yl)-phenyl]-8-trifluoromethyl-1,3-dihydro-benzo[b][1,4]diazepin-2-one]",–,241 to 242
